From ChEMBL document CHEMBL1157308, “Daphniyunnines A-E, alkaloids from Daphniphyllum yunnanense” (J Nat Prod, 2006)

Legend:
P388 = test: Cytotoxicity against mouse P388 cells; type: functional, cell-based
A549 = test: Cytotoxicity against human A549 cells; type: functional, cell-based

Q: How did the IC50 (P388) turn out when `C[C@@H]1CN2C[C@H]3CCC4=C5[C@@](O)(CC[C@@]56C(=O)[C@@H]1C[C@@H]2[C@@]36C)CC4=O` [DAPHNIYUNNINE D] was run?
A: The IC50 was 3000 nM.

Q: And the IC50 (A549)?
A: The IC50 was 600 nM.
